Source: US9969743B2, “Urea and amide derivatives of aminoalkylpiperazines and use thereof” (Southern Research Institute, priority 2012, dated 2018)

What was measured:
Format in all cases: in vivo
[1] = tested on: Long Evans rats; assay: Cocaine-induced locomotor activity; settings: 3.75, 7.5 or 15 mg/kg 10 minutes before 10 mg/kg of cocaine; p<0.05
Description: (§1) In Vivo Studies. Effect on Locomotor Activity. These studies were performed using Long Evans rats using standard protocols. Locomotor activity chambers measuring 43×43×30 cm (l×w×h) were used for the locomotor activity experiments. Each chamber was equipped with eight photo-emitters positioned along the length of the chamber 6 cm above the floor, each paired directly opposite a photocell. Locomotor activity counts were registered when adjacent beams were broken consecutively. Before receiving any drug, the animals (n=96) were placed in locomotor activity chambers for habituation, for 2 hours per day for 3 consecutive days. Based on the locomotor activity score obtained during the third habituation session, animals were assigned into one of […]. […] For the 113 alone experiments, each of the four groups received one of 4 doses of 113 (0, 3.75, 7.5 or 15 mg/kg) 10 minutes prior to placement in the activity chambers. For the 113 cocaine interaction experiments, each of 4 groups were injected with one of the 4 doses of the compound (0, 3.75, 7.5 or 15 mg/kg) 10 minutes before receiving 10 mg/kg of cocaine as the second injection. […] The locomotor counts in the 113 alone and 113/cocaine experiments were analyzed using two separate mixed-design ANOVAs with 113 dose (between-groups) and 5-min bins (repeated measures) as factors. […]

[2] = tested on: Rats; assay: Cue-induced reinstatement of cocaine-seeking; settings: ip injection of one of 3 doses 20 minutes before 1-h reinstatement session
Description: In Vivo Studies. Effect on Reinstatement. Rats were trained to self-administer cocaine (1.0 mg/kg/injection) under a FR1 schedule of reinforcement in daily 3-h sessions and, after stable responding was established (as described above) the schedule was changed to FR3. After stable responding under the FR3 schedule was established, extinction training began. Stable responding was defined as follows: 12 consecutive sessions in which total rewards per session was greater than 20 and in which total rewards per session for the last three sessions was within ±10% of the mean of the three sessions. […] After extinction criteria were met each rat was tested in one 1-h reinstatement session; each rat received an ip injection of vehicle or one of 3 doses of the test compound and 20 minutes later was placed in the operant chamber. At the start of the reinstatement session the cocaine-associated cues (light on for 20 s and pump on for 4.5 s) were presented twice, once at 25 sec and again at 2 min into the session. Presses on the active lever illuminated the light and activated the pump.

[3] = tested on: Long Evans rats; assay: Food self-administration under PR schedule of reinforcement; settings: 3.75 mg dose vs 0, t(7)=0.43, p=0.66
Description: In Vivo Studies. Effect on Food-Self administration. These studies were performed using Long Evans rats using standard protocols. Training and testing took place in ventilated and sound-attenuated operant chambers measuring 30×21×18 cm. Each chamber contained two levers, one light above each of the levers, and a food trough. Each lever was positioned 2.5 cm from the rod floor and the food trough (measuring 5×5 cm) was centered between the two levers. A different set of animals (n=8) was trained to press a lever reinforced by food under a FR1 schedule of reinforcement. […] Percentage of baseline BPs for food self-administration was analyzed using a dependent measures t-test comparing the 0 and 3.75 mg doses of 113.

[4] = tested on: Long Evans rats; assay: Cocaine self-administration under PR schedule of reinforcement
Description: In Vivo Studies. Effect on Cocaine-Self administration. These studies were performed using Long Evans rats using standard protocols (Quinlan M. G. et al. Psychopharmacol. 2004, 175, 53-59; Ranaldi, R. et al. Behav. Pharmacol. 2011, 22, 347-353). Cocaine self-administration sessions were conducted in sixteen operant chambers; eight measuring 30×22×27 cm (l×w×h) and the other eight measuring 26×26×30 cm (l×w×h). Each chamber was situated inside a sound-attenuating box and was equipped with two retractable levers, a white light above each lever, and a tether. Polyethylene tubing, covered by the tether, connected the animal, through a fluid swivel, to a syringe in a syringe pump (Razel, 3.33 rpm). […] Each animal was tested with one dose of the D3 antagonist, randomly determined, at as many of the three cocaine doses as possible. After a particular test the animal's cocaine dose was changed to another one (randomly determined) and its baseline BP on the new dose was established. BP during the test session was expressed as the percentage of the average BP obtained during the last three baseline sessions. Percentage of baseline BP and final ratio (i.e. the number of lever presses required for the BP infusion) were analyzed using separate two-way analyses of variance (ANOVAs) with dose of 113 and dose of cocaine as between-groups factors. […]

[5] = tested on: Long Evans rats; assay: Spontaneous locomotor activity; settings: all doses tested (3.75, 7.5, 15 mg/kg), any time during the test sessions
Description: as §1

CC(C)(C)c1nc(N2CCN(CCCCNC(=O)c3cn4ccccc4n3)CC2)cc(C(F)(F)F)n1 [Compound 113, N-(4-(4-(2-(tert-Butyl)-6-(trifluoromethyl)pyrimidin-4-yl)piperazin-1-yl)butyl)imidazo[1,2-a]pyridine-2-carboxamide]
cocaine-induced locomotor activity [1]: significantly reduce cocaine-induced locomotor activity in a dose-related fashion | cue-induced reinstatement (presses on the active lever) [2]: strongly reduced in a dose-related fashion | percentage of baseline BP for food self-administration [3]: did not affect food self-administration | percentage of baseline BP for cocaine under PR schedule, dose relation ([4]; 3.75, 7.5 and 15 mg/kg intraperitoneally 10 minutes prior to session, cocaine 0.375, 0.75 or […]): dose-related reduction in the percentage of baseline BPs | percentage of baseline BPs for cocaine compared to vehicle (Tukey post hoc) ([4]; 3.75, 7.5 or 15 mg of 113, ps<0.05): significant reductions in the percentage of baseline BPs | spontaneous locomotor activity, overall [5]: none of the doses tested produced significant effects on spontaneous locomotor activity
